From ChEMBL document CHEMBL2440076, “New triarylpyrazoles as broad-spectrum anticancer agents: design, synthesis, and biological evaluation” (Eur J Med Chem, 2013)

How the values were obtained:
[1] = system: T47D; test: Growth inhibition of human T47D cells assessed as cell growth at 10 uM after 48 hrs by sulforhodamine B assay; type: functional; conditions: read-out: Activity
[2] = Growth inhibition of human Hs 578T cells assessed as cell growth at 10 uM after 48 hrs by sulforhodamine B assay; type: functional; conditions: read-out: Activity
[3] = system: UO-31; test: Growth inhibition of human UO31 cells assessed as cell growth at 10 uM after 48 hrs by sulforhodamine B assay; type: functional; conditions: UO-31, 48 h, read-out: Activity
[4] = system: PC-3; test: Growth inhibition of human PC3 cells assessed as cell growth at 10 uM after 48 hrs by sulforhodamine B assay; type: functional; conditions: PC-3, 48 h, read-out: Activity
[5] = system: HCT-15; test: Growth inhibition of human HCT15 cells after 48 hrs by sulforhodamine B assay; type: functional; conditions: HCT-15, 48 h
[6] = system: NCI-H460; test: Growth inhibition of human NCI-H460 cells after 48 hrs by sulforhodamine B assay; type: functional; conditions: NCI-H460, 48 h
[7] = system: NCI-H23; test: Growth inhibition of human NCI-H23 cells after 48 hrs by sulforhodamine B assay; type: functional; conditions: NCI-H23, 48 h
[8] = system: HOP-62; test: Growth inhibition of human HOP62 cells after 48 hrs by sulforhodamine B assay; type: functional; conditions: HOP-62, 48 h
[9] = system: SR; test: Growth inhibition of human SR cells after 48 hrs by sulforhodamine B assay; type: functional
[10] = system: MOLT-4; test: Growth inhibition of human MOLT4 cells after 48 hrs by sulforhodamine B assay; type: functional; conditions: MOLT-4, 48 h
[11] = system: CCRF-CEM; test: Growth inhibition of human CCRF-CEM cells after 48 hrs by sulforhodamine B assay; type: functional
[12] = system: SK-OV-3; test: Growth inhibition of human SKOV3 cells assessed as cell growth at 10 uM after 48 hrs by sulforhodamine B assay; type: functional; conditions: SK-OV-3, 48 h, read-out: Activity
[13] = Growth inhibition of human NCI-ADR-RES cells assessed as cell growth at 10 uM after 48 hrs by sulforhodamine B assay; type: functional; conditions: read-out: Activity
[14] = system: OVCAR-5; test: Growth inhibition of human OVCAR5 cells assessed as cell growth at 10 uM after 48 hrs by sulforhodamine B assay; type: functional; conditions: OVCAR-5, 48 h, read-out: Activity
[15] = system: OVCAR-8; test: Growth inhibition of human OVCAR8 cells assessed as cell growth at 10 uM after 48 hrs by sulforhodamine B assay; type: functional; conditions: OVCAR-8, 48 h, read-out: Activity
[16] = system: OVCAR-3; test: Growth inhibition of human OVCAR3 cells assessed as cell growth at 10 uM after 48 hrs by sulforhodamine B assay; type: functional; conditions: OVCAR-3, 48 h, read-out: Activity
[17] = system: U-251; test: Growth inhibition of human U251 cells assessed as cell growth at 10 uM after 48 hrs by sulforhodamine B assay; type: functional; conditions: U-251, 48 h, read-out: Activity
[18] = system: SF-268; test: Growth inhibition of human SF268 cells assessed as cell growth at 10 uM after 48 hrs by sulforhodamine B assay; type: functional; conditions: SF-268, 48 h, read-out: Activity
[19] = system: COLO 205; test: Growth inhibition of human COLO205 cells assessed as cell growth at 10 uM after 48 hrs by sulforhodamine B assay; type: functional; conditions: COLO 205, 48 h, read-out: Activity
[20] = system: NCI-H522; test: Growth inhibition of human NCI-H522 cells assessed as cell growth at 10 uM after 48 hrs by sulforhodamine B assay; type: functional; conditions: NCI-H522, 48 h, read-out: Activity
[21] = system: UO-31; test: Growth inhibition of human UO31 cells after 48 hrs by sulforhodamine B assay; type: functional; conditions: UO-31, 48 h
[22] = system: CAKI-1; test: Growth inhibition of human CAKI-1 cells after 48 hrs by sulforhodamine B assay; type: functional; conditions: CAKI-1, 48 h
[23] = system: 786-0; test: Growth inhibition of human 786-0 cells after 48 hrs by sulforhodamine B assay; type: functional; conditions: 786-0, 48 h
[24] = system: OVCAR-8; test: Growth inhibition of human OVCAR8 cells after 48 hrs by sulforhodamine B assay; type: functional; conditions: OVCAR-8, 48 h
[25] = Growth inhibition of human NCI-ADR-RES cells after 48 hrs by sulforhodamine B assay; type: functional
[26] = system: OVCAR-5; test: Growth inhibition of human OVCAR5 cells after 48 hrs by sulforhodamine B assay; type: functional; conditions: OVCAR-5, 48 h
[27] = system: OVCAR-4; test: Growth inhibition of human OVCAR4 cells after 48 hrs by sulforhodamine B assay; type: functional; conditions: OVCAR-4, 48 h
[28] = system: SK-MEL-5; test: Growth inhibition of human SK-MEL-5 cells after 48 hrs by sulforhodamine B assay; type: functional; conditions: SK-MEL-5, 48 h
[29] = system: MDA-MB-435; test: Growth inhibition of human MDA-MB-435 cells after 48 hrs by sulforhodamine B assay; type: functional, cell-based; conditions: MDA-MB-435, 48 h
[30] = system: M14; test: Growth inhibition of human M14 cells after 48 hrs by sulforhodamine B assay; type: functional; conditions: M14, 48 h
[31] = system: Malme-3M; test: Growth inhibition of human MALME-3M cells after 48 hrs by sulforhodamine B assay; type: functional
[32] = system: U-251; test: Growth inhibition of human U251 cells after 48 hrs by sulforhodamine B assay; type: functional; conditions: U-251, 48 h
[33] = system: SF-268; test: Growth inhibition of human SF268 cells after 48 hrs by sulforhodamine B assay; type: functional; conditions: SF-268, 48 h
[34] = system: HOP-62; test: Growth inhibition of human HOP62 cells assessed as cell growth at 10 uM after 48 hrs by sulforhodamine B assay; type: functional; conditions: HOP-62, 48 h, read-out: Activity
[35] = system: HL-60(TB); test: Growth inhibition of human HL-60(TB) cells assessed as cell growth at 10 uM after 48 hrs by sulforhodamine B assay; type: functional; conditions: HL-60, 48 h, read-out: Activity
[36] = read-out: LC50 (the source's name)

O=C(Nc1cccc(-n2cc(-c3ccncc3)c(-c3ccc(Cl)c(O)c3)n2)c1)Nc1ccc(Cl)c(Cl)c1
growth at 10 µM [1]: 23%
growth at 10 µM [2]: 36.1%
growth at 10 µM [3]: 21%
growth at 10 µM [4]: 5.43%
GI50 [5]: 1230 nM
LC50 [5]: > 32.5 µM
TGI [5]: 29.6 µM
GI50 [6]: 993 nM
LC50 [6]: 24.2 µM
TGI [6]: 3.57 µM
GI50 [7]: 1220 nM
LC50 [7]: > 32.5 µM
TGI [7]: 29.1 µM
GI50 [8]: 2080 nM
TGI [8]: 17.6 µM
CC50 [8, 36]: > 32.5 µM
GI50 [9]: 1140 nM
TGI [9]: 15 µM
CC50 [9, 36]: > 32.5 µM
GI50 [10]: 1380 nM
TGI [10]: > 32.5 µM
CC50 [10, 36]: > 32.5 µM
GI50 [11]: 1030 nM
LC50 [11]: > 32.5 µM
TGI [11]: > 32.5 µM
growth at 10 µM [12]: 18.7%
growth at 10 µM [13]: 20.9%
growth at 10 µM [14]: 56.4%
growth at 10 µM [15]: 11.7%
growth at 10 µM [16]: -4.74%
growth at 10 µM [17]: 12.4%
growth at 10 µM [18]: 29.1%
growth at 10 µM [19]: 30.2%
growth at 10 µM [20]: -6.8%
GI50 [21]: 1250 nM
TGI [21]: > 32.5 µM
CC50 [21, 36]: > 32.5 µM
GI50 [22]: 1110 nM
TGI [22]: 14.3 µM
CC50 [22, 36]: > 32.5 µM
GI50 [23]: 7.22 µM
TGI [23]: > 32.5 µM
CC50 [23, 36]: > 32.5 µM
GI50 [24]: 1210 nM
TGI [24]: > 32.5 µM
CC50 [24, 36]: > 32.5 µM
GI50 [25]: 2740 nM
TGI [25]: > 32.5 µM
CC50 [25, 36]: > 32.5 µM
GI50 [26]: 2400 nM
LC50 (concentration killing 50% of cells) [26]: > 32.5 µM
TGI [26]: > 32.5 µM
GI50 [27]: 1690 nM
LC50 (concentration killing 50% of cells) [27]: > 32.5 µM
TGI [27]: > 32.5 µM
GI50 [28]: 570 nM
LC50 (concentration killing 50% of cells) [28]: 2350 nM
TGI [28]: 1160 nM
GI50 [29]: 1100 nM
IC50 [29]: 1100 nM
TGI [29]: 6.05 µM
CC50 [29, 36]: > 32.5 µM
GI50 [30]: 1180 nM
LC50 (concentration killing 50% of cells) [30]: > 32.5 µM
TGI [30]: 6.97 µM
GI50 [31]: 1190 nM
LC50 (concentration killing 50% of starting cells) [31]: > 32.5 µM
TGI [31]: 8.1 µM
GI50 [32]: 1510 nM
LC50 (concentration killing 50% of cells) [32]: > 32.5 µM
TGI [32]: 9.68 µM
GI50 [33]: 1490 nM
TGI [33]: 10.9 µM
CC50 [33, 36]: > 32.5 µM
growth at 10 µM [34]: 34.4%
growth at 10 µM [35]: -6.98%
